We go through 1 compound from patent US20090232735A1, “USE OF FRUCTOSE-BASED THERAPIES FOR THE TREATMENT OF CANCER” (CEDARS-SINAI MEDICAL CENTER, priority 2005, published 2009).

Assay type in all cases: cell-based, human
Experiment [1] concerns fructokinase-1 (FK-1) mRNA. Put plainly: Fructokinase-1 mRNA by RT-PCR in MCF-7 cells. To be noted: MCF-7, 5 mM sugar, compared with 2 mM glucose. As to the method: FIG. 7 depicts fructokinase-1 expression in accordance with an embodiment of the present invention. Breast cancer cells (MCF-7) express Fructokinase-1 (FK-1). RT-PCR was used to measure fructokinase-1 (FK-1) mRNA levels in MCF-7 cells following growth in 2 mM glucose, 5.5 mM glucose, or 5.5 mM fructose for 24 h, and in two human breast cancers (BT 1 & 2), and matched adjacent normal breast tissue (NB 1 & 2) from the same individual. […] Human liver, and exclusion of template served as positive and negative controls.
The inventors used RT-PCR analysis and specific primer pairs (SEQ ID NO: 1 (3′[…]), SEQ ID NO: 2 (5′[…])) to examine fructokinase-1 (FK-1) mRNA levels in glucose- or fructose-treated breast cancer cells. […] Also examined were FK-1 mRNA levels in two surgically resected human breast cancers, and paired adjacent normal breast tissue from the same individual. FK-1 mRNA was detectable in both normal and tumor tissue.

Experiment [2] deals with fructokinase-1 (FK-1) mRNA. Put plainly: Fructokinase-1 mRNA by Northern blot in MCF-7 cells. To be noted: MCF-7, 5.5 mM fructose, 24 h. As to the method:
FIG. 9 depicts Northern blot analysis of fructokinase-1 mRNA levels in MCF-7 breast cancer cells in accordance with an embodiment of the present invention. 20 μg total RNA was used to measure FK-1 mRNA levels in the MCF-7 cells following growth in 2 mM glucose, 5.5 mM glucose, or 5.5 mM fructose for 24 h. FK-1 was also detected in human liver, with lower levels in muscle tissue.
In additional studies, the inventors used Northern blot to confirm significant FK-1 mRNA expression in the breast cancer cells. As depicted in FIG. 9, fructokinase-1 mRNA expression was detected in MCF-7 cells cultured in 2, and 5.5 mM glucose, and 5.5 mM fructose, and in human muscle and liver tissue.

Experiment [3] relates to MAPK pathway (pERK, pRSK, pMEK). Kind of experiment: Western blot of MAPK pathway in PANC-1 cells. To be noted: PANC-1, 5.5 mM sugar, 48 h. As to the method:
FIG. 23 depicts Western blot analysis examining MAPK pathway expression in accordance with an embodiment of the present invention. PANC-1 pancreatic cancer cells were incubated in 2 mM glucose, 5.5 mM glucose or 5.5 mM fructose for 48 hours, after which Western blot analysis on total protein lysates was employed to examine phosphorylated MEK (pMEK), pRSK, and pCREB, and corresponding total MEK, RSK, and CREB levels.
Several signal transduction pathways may be involved in fructose-mediated pancreatic cancer growth but given the importance of the MAPK pathway in proliferation, the inventors believed that MAPK was involved. In the MAPK pathway, MEK mediated phosphorylation of the p44/42 MAP kinase (ERK) is the first step in this cascade, which results in phosphorylation of p90^Rsk, leading to transcriptional activation of CREB, and AP1, activating gene transcription and promoting cellular growth. The inventors employed Western blot analysis to examine MAPK pathway expression in pancreatic cancer cells incubated in 2 mM glucose, 5.5 mM glucose, and 5.5 mM fructose for 48 hours. Levels of the active phosphorylated proteins, pERK, pRSK, and pMEK were normalized to total ERK, RSK, and MEK levels respectively, and compared between the fructose-, and glucose-treated PANC-1 cells.

The next experiment deals with transketolase (TKK). Kind of experiment: Transketolase activity (NADH oxidation) in PANC-1 lysates. To be noted: PANC-1, 5.5 mM fructose. The protocol:
FIG. 34 depicts quantitation of transketolase activity in pancreatic cancer PANC-1 cells following incubation in 2 mM glucose, 5.5 mM glucose, and 5.5 mM fructose for 24 h, 48 h, and 72 h respectively, in accordance with an embodiment of the present invention.
The inventors believe that fructose-treatment of pancreatic cancer cells led to an increase in TKK-driven nucleic acid synthesis, and thus fructose-treatment would result in an increase in either PANC-1 TKK expression and/or activity in comparison to equivalent glucose concentrations. Western blot analysis on protein lysates derived from fructose-, and glucose-treated PANC-1 cells were performed (5.5 mM fructose, and glucose for 24, and 48 h as per previous protocol) using a specific TKK antibody, and compared TKK expression in the fructose-, and glucose-treated PANC-1 cells. As depicted in FIG. 33, TKK expression at 24 h, and 48 h in protein lysates derived from 5.5 mM glucose-treated PANC-1 cells was increased in comparison to expression in 2 mM glucose-treated cells. However, highest TKK expression was observed after 5.5 mM fructose treatment at 24 h, and 48 h, and TKK levels were almost 2-fold higher in 5.5 mM fructose-treated, in comparison to 5.5 mM glucose-treated cells (p<0.01). […] After gentle mixing the absorbance of the mixture was measured at 10 min intervals for 2 h at 340 nm. Transketolase activity was then derived from the difference in absorbance at 10, and 80 minutes, and expressed as nmol/min/million cells. […] Pancreatic cancer proliferation rates were then measured using the MTS assay (FIG. 35).

`O=C(CO)[C@@H](O)[C@H](O)[C@H](O)CO` [fructose]: in experiment [1], the “FK-1 mRNA levels (RT-PCR)” value is recorded as “highest FK-1 levels”. In experiment [2], the “FK-1 mRNA expression (Northern blot)” value is “Highest FK-1 expression”. The “pERK, pRSK, and pMEK expression” value in experiment [3] is “highest pERK, pRSK, and pMEK expression”. The “TKK activity higher than 5.5 mM glucose-treated cells” value amounted to 2 fold in the experiment on transketolase (TKK) (24 h), 3 fold with transketolase (TKK) (48 h) and 1.7 fold in the experiment on transketolase (TKK) (72 h).
